The values that follow come from patent US8314123B2, “5, 6, or 7-substituted -3-(hetero) arylisoquinolinamine derivatives and therapeutic use thereof” (Rexahn Pharmaceuticals, Inc., priority 2006, dated 2012).

SMILES strings stand for the structures. Where two headings read alike, the source gives them in different places.

One data set has as its system MDA-MB-231 (breast). In words: In vitro cell proliferation assay (SRB), MDA-MB-231. The note with it: Homo sapiens, SRB method, 96 hours, read-out: Inhibition of cell growth (IC50, μM) MDA-MB-231. Type of data set: cell-based. The method, boiled down: (§1)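 Read-out is OD530 after sulforhodamine B staining of TCA-fixed cells, translated into live-cell counts using standard curves generated for each line. Survival relative to DMSO-treated wells after 96 h treatment gave IC50 values by non-linear regression.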
For orientation: Sulforhodamine B stains cellular protein and so reports cell mass.

In a further data set the test system is PANC-1 (pancreas). Put plainly: In vitro cell proliferation assay (SRB), PANC-1. Format: cell-based. As to conditions: Homo sapiens, SRB method, 96 hours, read-out: Inhibition of cell growth (IC50, μM) PANC-1. Put shortly: (§2)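 96 h compound exposure, 37° C, 5% CO2, triplicate wells, DMSO control. TCA fix, 0.4% SRB stain, OD530 → cell number by standard curve. % survival vs control; IC50 by non-linear regression.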

The test system of a further data set is HCT116 (colon). Put plainly: In vitro cell proliferation assay (SRB), HCT116. The note with it: Homo sapiens, HCT-116. Format: cell-based. Put shortly: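 Growth inhibition measured by the sulforhodamine B method following 96-hour compound treatment. IC50 values come from non-linear regression of survival relative to DMSO.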
The subject of a further data set is PC3 (prostate). Put plainly: In vitro cell proliferation assay (SRB), PC3. As to conditions: Homo sapiens; SRB method, 96 hours; read-out: Inhibition of cell growth (IC50, μM) PC3. Format: cell-based. Put shortly:
as §1

For a further data set, the system named is OVCAR-3 (ovary). In words: In vitro cell proliferation assay (SRB), OVCAR3. Type of data set: cell-based. As to conditions: Homo sapiens, SRB method, 96 hours, read-out: Inhibition of cell growth (IC50, μM) OVCAR3. The method, boiled down:
as §1

In a further data set the test system is SK-MEL-28 (melanoma). In words: In vitro cell proliferation assay (SRB), SK-MEL-28. Format: cell-based. As to conditions: Homo sapiens, SRB method, 96 hours, read-out: Inhibition of cell growth (IC50, μM) SK-MEL-28. Put shortly:
as §2

The test system of a further data set is Caki-1 (kidney). In words: In vitro cell proliferation assay (SRB), Caki-1. Format: cell-based. The note with it: Homo sapiens, SRB method, 96 hours, read-out: Inhibition of cell growth (IC50, μM) Caki-1. Put shortly:
as §1

In the next data set the test system is SNB-19 (glioblastoma). Put plainly: In vitro cell proliferation assay (SRB), SNB19. Format: cell-based. The note with it: Homo sapiens, SRB method, 96 hours, read-out: Inhibition of cell growth (IC50, μM) SNB19. The method, boiled down:
as §2

In data set [1] the test system is paclitaxel-resistant HCT-15 colorectal cancer cells. In words: In vitro antitumor effects against paclitaxel-resistant HCT-15 cells. Type of data set: cell-based, Human. As for the experimental part: (§3) Cancer cell lines to determine the effect of 5, 6, or 7-substituted-3-(hetero)arylisoquinolinamine compounds were obtained from the following sources: Human MDA-MB-231 (breast), PC3 (prostate), HCT-15 (colon), HCT116 (colon), OVCAR-3 (ovary), Caki-1 (kidney), PANC-1 (pancreas), SNB-19 (glioblastoma) and SK-MEL-28 (melanoma) from the American Type Culture Collection (ATCC) (Manassas, Va.). PC3, OVCAR-3, SK-MEL-28 and SNB-19 were grown in RPMI1640 medium (Invitrogen, Carlsbad, Calif.) supplemented with 10% fetal bovine serum (“FBS”), 1 mM sodium pyruvate, 10 mM HEPES and 100 U/ml penicillin and 100 μg/ml streptomycin (“P/S”). MDA-MB-231, Caki-1, HCT-15 (colon) and PANC-1 cells were maintained in Dulbecco's modified Eagle's medium (“DMEM”, Invitrogen) supplemented with 10% FBS, P/S and 10 mM HEPES. HCT116 cells were maintained in DMEM supplemented with 10% FBS, P/S and 10 mM HEPES for in vitro cell proliferation assay and in RPMI1640 medium supplemented with 10% FBS, 1 mM sodium pyruvate, 10 mM HEPES and P/S for in vitro cell cycle analysis. All cells were incubated at 37° C. under humidified 5% CO2.
(§4) The growth inhibition assay of representative 5, 6, or 7-substituted-3-(hetero)arylisoquinolinamine derivatives against human tumor cell lines was performed using the Sulforhodamine B (“SRB”) method (Skehan et al., J. National Cancer Institute, 82: 1107-1112 (1990)). Briefly, exponentially growing tumor cells were seeded into a 96-well plate at a density of 2-3×10^3 cells/well and treated with 5, 6, or 7-substituted-3-(hetero)arylisoquinolinamine compounds the next day. Triplicate wells were used for each treatment. The cells were incubated with the various compounds for 96 hours at 37° C. in a humidified 5% CO2 atmosphere. After 96-hour incubation, cells were fixed with 10% trichloroacetic acid (“TCA”), incubated for 1 hour at 4° C., and washed 3 times with tap water. Subsequently, cells were stained with 0.4% sulforhodamine B in 1% acetic acid for 30 minutes, washed 4 times with 1% acetic acid, and air-dried again. After 5 minutes agitation in 10 mM Tris solution, the absorbance of each well was measured at 530 nm using Benchmark Plus Microplate reader (Bio-Rad Laboratories, Hercules, Calif.).
(§5) To translate the OD530 values into the number of live cells in each well, the OD530 values were compared to those on standard OD530-versus-cell number curves generated for each cell line. The percent survival was calculated using the formula: % Survival=live cell number [test]/live cell number [control]×100
(§6) The IC50 values were calculated by non-linear regression analysis.
Compound 13 and 14 were tested in colon cancer cells and their antitumor activities were compared with paclitaxel (Taxol®).

The test system of data set [2] is HCT15 human colon carcinoma xenografts. Put plainly: Ex vivo xenograft study of nude mice. Format: in vivo. As to conditions: 10 mg/kg/day intraperitoneal, three times per week. As for the experimental part:
In order to observe the inhibition of growth of tumor in an animal model, an ex vivo xenograft study of nude mice was conducted utilizing Compound 13. Paclitaxel-resistant HCT15 cell suspension (1×10^6 cells in 0.2 ml of RPMI) was injected subcutaneously into the right flank of six-week-old female athymic mice (BALB/c nu/nu) on day 0. A sufficient number of mice were injected with HCT15 cell suspension so that tumors in a volume range as narrow as possible were selected for the trial on the day of treatment initiation. Animals with tumors in the proper size range were assigned to various treatment groups. Palcitaxel was used as a positive control. Compound 13 and paclitaxel were dissolved in 5 Cremophor and 5% ethanol in PBS and solvent alone served as vehicle control. All study medications (vehicle control, paclitaxel: 10 mg/kg/day, Compound 13: 10 mg/kg/day) were given by intraperitoneal injections three times per week starting from day 10 and ending on day 29 after inoculation of HCT15 cells. To quantify tumor growth, three perpendicular diameters of the tumors were measured with calipers every 3-5 days, and the body weight of the mice was monitored for toxicity. The tumor volume was calculated using the formula: tumor volume (mm^3)=(width)×(length)×(height)×π/6.

In the next data set the test system is human cancer cell lines. In words: Growth inhibition against the panel of human tumor cell lines (SRB), overall statements. Format: cell-based. As to conditions: Table 3 cell lines. As for the experimental part:
as §3
The growth inhibition of the 5, 6, or 7-substituted-3-(hetero)arylisoquinolinamine derivatives against a variety of human tumor cells was evaluated to study the relative importance of particular substituent groups on the compounds. The 5, 6, or 7-substituted-3-(hetero)arylisoquinolinamine derivatives, prepared as described above, were tested with DMSO as a control.
as §4, §5, §6
Using QSAR and medicinal chemistry techniques, a large number of compounds, including the compounds shown in Table 1-2 above, were synthesized. The synthesized compounds were screened against at least four cancer cell lines, PANC-1, MDA-MB-231, HCT116 and Caki-1, at approximately 1 μM concentration. Compounds showing activity in at least one of these cell lines were selected for further screening. From these compounds, thirty compounds were selected for further evaluation as broad-spectrum anti-proliferative agents as shown in the following Table 3.

The mark [3] stands for this setting: SRB method, 96 hours, Table 3, read-out: Inhibition of cell growth (IC50, μM) HCT116.

As to `COc1cccc(-c2cc3ccc(N(C)C)cc3c(N)n2)c1.Cl` [Compound 13, 3-(3-methoxyphenyl)-N^7,N^7-dimethylisoquinoline-1,7-diamine hydrochloride], the IC50 (as a rule, the concentration needed to halve the response being measured) is 0.021 µM in the data set with MDA-MB-231 (breast); 0.019 µM in the data set on PANC-1 (pancreas); 0.017 µM in the data set on HCT116 (colon) (setting [3]); 0.017 µM in the data set with HCT116 (colon) (Table 5, read-out: Inhibition of cell growth, IC50 (μM) HCT116); 0.019 µM in the data set on PC3 (prostate); 0.014 µM in the data set with OVCAR-3 (ovary). The IC50 in the data set with SK-MEL-28 (melanoma) is 0.032 µM; in the data set with Caki-1 (kidney), 0.022 µM; with SNB-19 (glioblastoma), 0.032 µM; in [1] (Homo sapiens, paclitaxel-resistant HCT-15, Table 5, read-out: Inhibition of cell growth, IC50 (μM) HCT-15), 0.015 µM. Besides, the “antitumor activity compared with paclitaxel” value in [1] (paclitaxel-resistant HCT-15 colorectal cancer cells) is given as “higher antitumor activities than that of paclitaxel”. Besides, the “% Inhibition of HCT-15 human colorectal cancer in mice at 29 days” value in data set [2] (day 10 to day 29, nude mice) is 69.2%. Further, the Tolerability of treatment result in data set [2] (nude mice) is recorded as “well tolerated without deaths”. The body weight fluctuations result in [2] (nude mice) is given as “no more than 1 g”. Further, the “activity in growth inhibition of human cancer cell compared to Compound 23” value with human cancer cell lines is “equal or better activity”. Further, the “times more active than compound 23 in tested cell lines” value with human cancer cell lines is “five to thirteen times more active”.

On to `Cc1ccc2c(N)nc(-c3ccccc3C)cc2c1.Cl` [Compound 23, 6-Methyl-3-o-tolylisoquinolin-1-amine hydrochloride salt], for which the melting point (in general, the temperature of the solid-liquid transition) lay in the range of 269.1 to 270.2 °C. Also, the concentration for half-maximal inhibition (IC50) in the data set with MDA-MB-231 (breast) came to 0.15 µM. In addition, in the data set with PANC-1 (pancreas), the IC50 was found to be 0.24 µM. Moreover, the IC50 in the data set on HCT116 (colon) (setting [3]) came out at 0.19 µM. Further, the IC50 in the data set with PC3 (prostate) was found to be 0.24 µM. For the same compound, the IC50 in the data set on OVCAR-3 (ovary) is 0.15 µM. For the same compound, the IC50 in the data set with SK-MEL-28 (melanoma) was 0.35 µM. In addition, the IC50 with Caki-1 (kidney) was determined as 0.12 µM. Moreover, the IC50 in the data set with SNB-19 (glioblastoma) is 0.26 µM.
